Reference: PubChem BioAssay (NCI)
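Dose response: 5 concentrations. Exposure: 48 h. Format: 96-well plates. Endpoint: linear interpolation; highest concentration if not reached. TGI marks complete inhibition of growth.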

How the values were obtained:
Experiment in all cases: inhibition of tumour cell growth, NCI panel, 48 h
CCRF-CEM leukemia = test system: CCRF-CEM leukemia
UACC-257 melanoma = test system: UACC-257 melanoma
EKVX NSCLC = test system: EKVX NSCLC
HT29 colon = test system: HT29 colon
OVCAR-5 ovarian = test system: OVCAR-5 ovarian
OVCAR-8 ovarian = test system: OVCAR-8 ovarian
IGROV1 ovarian = test system: IGROV1 ovarian
CAKI-1 renal = test system: CAKI-1 renal
RPMI-8226 leukemia = test system: RPMI-8226 leukemia
NCI-H460 lung = test system: NCI-H460 lung
OVCAR-3 ovarian = test system: OVCAR-3 ovarian
SK-MEL-28 melanoma = test system: SK-MEL-28 melanoma
RXF 393 renal = test system: RXF 393 renal
SNB-78 CNS = test system: SNB-78 CNS
786-0 renal = test system: 786-0 renal
NCI-H23 lung = test system: NCI-H23 lung
UO-31 renal = test system: UO-31 renal
A498 renal = test system: A498 renal
SF-295 CNS = test system: SF-295 CNS
MOLT-4 leukemia = test system: MOLT-4 leukemia
M19-MEL melanoma = test system: M19-MEL melanoma
UACC-62 melanoma = test system: UACC-62 melanoma
ACHN renal = test system: ACHN renal
DLD-1 colon = test system: DLD-1 colon
MALME-3M melanoma = test system: MALME-3M melanoma
HCT-15 colon = test system: HCT-15 colon
DMS 273 small cell lung = test system: DMS 273 small cell lung
SK-MEL-2 melanoma = test system: SK-MEL-2 melanoma
HOP-62 NSCLC = test system: HOP-62 NSCLC
KM20L2 colon = test system: KM20L2 colon
A549 NSCLC = test system: A549 NSCLC
SW-620 colon = test system: SW-620 colon
NCI-H226 lung = test system: NCI-H226 lung
LXFL 529 NSCLC = test system: LXFL 529 NSCLC
M14 melanoma = test system: M14 melanoma
SF-539 CNS = test system: SF-539 CNS
SK-MEL-5 melanoma = test system: SK-MEL-5 melanoma
OVCAR-4 ovarian = test system: OVCAR-4 ovarian
TK-10 renal = test system: TK-10 renal
KM12 colon = test system: KM12 colon
HL-60(TB) leukemia = test system: HL-60(TB) leukemia
SK-OV-3 ovarian = test system: SK-OV-3 ovarian
U251 CNS = test system: U251 CNS
XF 498 CNS = test system: XF 498 CNS
HCC-2998 colon = test system: HCC-2998 colon
K-562 leukemia = test system: K-562 leukemia
SNB-75 CNS = test system: SNB-75 CNS
HCT-116 colon = test system: HCT-116 colon
SN12C renal = test system: SN12C renal
NCI-H522 lung = test system: NCI-H522 lung
SF-268 CNS = test system: SF-268 CNS
SNB-19 CNS = test system: SNB-19 CNS
DMS 114 small cell lung = test system: DMS 114 small cell lung
LOX IMVI melanoma = test system: LOX IMVI melanoma
SR leukemia = test system: SR leukemia
HOP-92 NSCLC = test system: HOP-92 NSCLC
COLO 205 colon = test system: COLO 205 colon

O=C1CC(c2c[nH]c3ccccc23)C(=O)N1c1ccccc1 (stereo not drawn)
TGI (CCRF-CEM leukemia): > 100 µM
TGI (UACC-257 melanoma): > 100 µM
TGI (EKVX NSCLC): > 100 µM
TGI (HT29 colon): > 100 µM
TGI (OVCAR-5 ovarian): > 100 µM
TGI (OVCAR-8 ovarian): > 100 µM
TGI (IGROV1 ovarian): > 100 µM
TGI (CAKI-1 renal): > 100 µM
TGI (RPMI-8226 leukemia): > 100 µM
TGI (NCI-H460 lung): > 100 µM
TGI (OVCAR-3 ovarian): > 100 µM
TGI (SK-MEL-28 melanoma): > 100 µM
TGI (RXF 393 renal): > 100 µM
TGI (SNB-78 CNS): > 100 µM
TGI (786-0 renal): > 100 µM
TGI (NCI-H23 lung): > 100 µM
TGI (UO-31 renal): > 100 µM
TGI (A498 renal): > 100 µM
TGI (SF-295 CNS): > 100 µM
TGI (MOLT-4 leukemia): > 100 µM
TGI (M19-MEL melanoma): > 100 µM
TGI (UACC-62 melanoma): > 100 µM
TGI (ACHN renal): > 100 µM
TGI (DLD-1 colon): > 100 µM
TGI (MALME-3M melanoma): > 100 µM
TGI (HCT-15 colon): > 100 µM
TGI (DMS 273 small cell lung): > 100 µM
TGI (SK-MEL-2 melanoma): > 100 µM
TGI (HOP-62 NSCLC): > 100 µM
TGI (KM20L2 colon): > 100 µM
TGI (A549 NSCLC): > 100 µM
TGI (SW-620 colon): > 100 µM
TGI (NCI-H226 lung): > 100 µM
TGI (LXFL 529 NSCLC): > 100 µM
TGI (M14 melanoma): > 100 µM
TGI (SF-539 CNS): > 100 µM
TGI (SK-MEL-5 melanoma): > 100 µM
TGI (OVCAR-4 ovarian): > 100 µM
TGI (TK-10 renal): > 100 µM
TGI (KM12 colon): > 100 µM
TGI (HL-60(TB) leukemia): > 100 µM
TGI (SK-OV-3 ovarian): > 100 µM
TGI (U251 CNS): > 100 µM
TGI (XF 498 CNS): > 100 µM
TGI (HCC-2998 colon): > 100 µM
TGI (K-562 leukemia): > 100 µM
TGI (SNB-75 CNS): > 100 µM
TGI (HCT-116 colon): > 100 µM

CCOC(=O)CN(Cc1ccccc1)Cc1c(C(=O)c2ccccc2)c2ccccc2n1C(=O)c1ccccc1
TGI (CCRF-CEM leukemia): > 100 µM
TGI (EKVX NSCLC): > 100 µM
TGI (HT29 colon): > 100 µM
TGI (OVCAR-5 ovarian): > 100 µM
TGI (OVCAR-8 ovarian): > 100 µM
TGI (IGROV1 ovarian): > 100 µM
TGI (CAKI-1 renal): > 100 µM
TGI (RPMI-8226 leukemia): > 100 µM
TGI (NCI-H460 lung): > 100 µM
TGI (OVCAR-3 ovarian): > 100 µM
TGI (SN12C renal): > 100 µM
TGI (SK-MEL-28 melanoma): > 100 µM
TGI (SNB-78 CNS): > 100 µM
TGI (786-0 renal): > 100 µM
TGI (NCI-H23 lung): > 100 µM
TGI (NCI-H522 lung): > 100 µM
TGI (UO-31 renal): > 100 µM
TGI (A498 renal): > 100 µM
TGI (SF-295 CNS): > 100 µM
TGI (MOLT-4 leukemia): > 100 µM
TGI (M19-MEL melanoma): > 100 µM
TGI (UACC-62 melanoma): > 100 µM
TGI (ACHN renal): > 100 µM
TGI (DLD-1 colon): > 100 µM
TGI (MALME-3M melanoma): > 100 µM
TGI (HCT-15 colon): > 100 µM
TGI (SF-268 CNS): > 100 µM
TGI (SNB-19 CNS): > 100 µM
TGI (DMS 273 small cell lung): > 100 µM
TGI (DMS 114 small cell lung): > 100 µM
TGI (SK-MEL-2 melanoma): > 100 µM
TGI (HOP-62 NSCLC): > 100 µM
TGI (KM20L2 colon): > 100 µM
TGI (A549 NSCLC): > 100 µM
TGI (SW-620 colon): > 100 µM
TGI (NCI-H226 lung): > 100 µM
TGI (LOX IMVI melanoma): > 100 µM
TGI (LXFL 529 NSCLC): > 100 µM
TGI (M14 melanoma): > 100 µM
TGI (SF-539 CNS): > 100 µM
TGI (SK-MEL-5 melanoma): > 100 µM
TGI (OVCAR-4 ovarian): > 100 µM
TGI (TK-10 renal): > 100 µM
TGI (SR leukemia): > 100 µM
TGI (KM12 colon): > 100 µM
TGI (SK-OV-3 ovarian): > 100 µM
TGI (HOP-92 NSCLC): > 100 µM
TGI (U251 CNS): > 100 µM
TGI (XF 498 CNS): > 100 µM
TGI (COLO 205 colon): > 100 µM
TGI (HCC-2998 colon): > 100 µM
TGI (K-562 leukemia): > 100 µM
TGI (SNB-75 CNS): > 100 µM
TGI (HCT-116 colon): > 100 µM

O=c1c2cccnc2ncn1CCCN1CCOCC1
TGI (CCRF-CEM leukemia): > 100 µM
TGI (EKVX NSCLC): > 100 µM
TGI (HT29 colon): > 100 µM
TGI (OVCAR-5 ovarian): > 100 µM
TGI (OVCAR-8 ovarian): > 100 µM
TGI (IGROV1 ovarian): > 100 µM
TGI (CAKI-1 renal): > 100 µM
TGI (NCI-H460 lung): > 100 µM
TGI (OVCAR-3 ovarian): > 100 µM
TGI (SN12C renal): > 100 µM
TGI (SK-MEL-28 melanoma): > 100 µM
TGI (RXF 393 renal): > 100 µM
TGI (SNB-78 CNS): > 100 µM
TGI (786-0 renal): > 100 µM
TGI (NCI-H23 lung): > 100 µM
TGI (NCI-H522 lung): > 100 µM
TGI (UO-31 renal): > 100 µM
TGI (SF-295 CNS): > 100 µM
TGI (M19-MEL melanoma): > 100 µM
TGI (UACC-62 melanoma): > 100 µM
TGI (ACHN renal): > 100 µM
TGI (DLD-1 colon): > 100 µM
TGI (MALME-3M melanoma): > 100 µM
TGI (SF-268 CNS): > 100 µM
TGI (SNB-19 CNS): > 100 µM
TGI (DMS 273 small cell lung): > 100 µM
TGI (DMS 114 small cell lung): > 100 µM
TGI (HOP-62 NSCLC): > 100 µM
TGI (KM20L2 colon): > 100 µM
TGI (A549 NSCLC): > 100 µM
TGI (SW-620 colon): > 100 µM
TGI (NCI-H226 lung): > 100 µM
TGI (LOX IMVI melanoma): > 100 µM
TGI (LXFL 529 NSCLC): > 100 µM
TGI (M14 melanoma): > 100 µM
TGI (SF-539 CNS): > 100 µM
TGI (SK-MEL-5 melanoma): > 100 µM
TGI (OVCAR-4 ovarian): > 100 µM
TGI (TK-10 renal): > 100 µM
TGI (SR leukemia): > 100 µM
TGI (KM12 colon): > 100 µM
TGI (SK-OV-3 ovarian): > 100 µM
TGI (HOP-92 NSCLC): > 100 µM
TGI (U251 CNS): > 100 µM
TGI (XF 498 CNS): > 100 µM
TGI (COLO 205 colon): > 100 µM
TGI (HCC-2998 colon): > 100 µM
TGI (K-562 leukemia): > 100 µM
TGI (SNB-75 CNS): > 100 µM
TGI (HCT-116 colon): > 100 µM

CC(C)(C)C(=O)OCC(COC(=O)C(C)(C)C)[N+](=O)[O-]
TGI (CCRF-CEM leukemia): > 100 µM
TGI (UACC-257 melanoma): > 100 µM
TGI (EKVX NSCLC): > 100 µM
TGI (HT29 colon): > 100 µM
TGI (OVCAR-5 ovarian): > 100 µM
TGI (OVCAR-8 ovarian): > 100 µM
TGI (IGROV1 ovarian): > 100 µM
TGI (CAKI-1 renal): > 100 µM
TGI (RPMI-8226 leukemia): > 100 µM
TGI (NCI-H460 lung): > 100 µM
TGI (OVCAR-3 ovarian): > 100 µM
TGI (SN12C renal): > 100 µM
TGI (SK-MEL-28 melanoma): > 100 µM
TGI (RXF 393 renal): > 100 µM
TGI (786-0 renal): > 100 µM
TGI (NCI-H23 lung): > 100 µM
TGI (NCI-H522 lung): 47.3 µM
TGI (UO-31 renal): > 100 µM
TGI (SF-295 CNS): > 100 µM
TGI (MOLT-4 leukemia): > 100 µM
TGI (M19-MEL melanoma): > 100 µM
TGI (UACC-62 melanoma): > 100 µM
TGI (ACHN renal): > 100 µM
TGI (DLD-1 colon): > 100 µM
TGI (MALME-3M melanoma): > 100 µM
TGI (HCT-15 colon): > 100 µM
TGI (SF-268 CNS): > 100 µM
TGI (SNB-19 CNS): > 100 µM
TGI (DMS 273 small cell lung): > 100 µM
TGI (DMS 114 small cell lung): > 100 µM
TGI (SK-MEL-2 melanoma): > 100 µM
TGI (A549 NSCLC): > 100 µM
TGI (SW-620 colon): > 100 µM
TGI (NCI-H226 lung): > 100 µM
TGI (LOX IMVI melanoma): > 100 µM
TGI (LXFL 529 NSCLC): > 100 µM
TGI (M14 melanoma): > 100 µM
TGI (SF-539 CNS): > 100 µM
TGI (OVCAR-4 ovarian): > 100 µM
TGI (TK-10 renal): > 100 µM
TGI (SR leukemia): > 100 µM
TGI (KM12 colon): > 100 µM
TGI (HL-60(TB) leukemia): 79.8 µM
TGI (SK-OV-3 ovarian): > 100 µM
TGI (U251 CNS): > 100 µM
TGI (XF 498 CNS): > 100 µM
TGI (COLO 205 colon): > 100 µM
TGI (HCC-2998 colon): > 100 µM
TGI (K-562 leukemia): > 100 µM
TGI (SNB-75 CNS): > 100 µM
TGI (HCT-116 colon): > 100 µM
